Results: ChEMBL document CHEMBL3046516, “Efficacy of neem limonoids on Cnaphalocrocis medinalis (Guenee) (Lepidoptera: Pyralidae) the rice leaffolder” (2005)

How the values were obtained:
[1] = system: Cnaphalocrocis medinalis; test: Antifeedant activity against 4 hr starved fifth-instar larval stage of Cnaphalocrocis medinalis infested compound-treated rice leaves assessed as approximate digestibility at 1 ppm measured every 24 hr for 4 days by gravimetric method (reference value: 44.81 +/- 4.12%); format: functional
[2] = system: Cnaphalocrocis medinalis; test: Antifeedant activity against 4 hr starved fifth-instar larval stage of Cnaphalocrocis medinalis infested compound-treated rice leaves assessed as relative consumption rate at 1 ppm measured every 24 hr for 4 days by gravimetric method (reference value: 0.524 +/- 0.03 mg/mg/day); format: functional
[3] = system: Cnaphalocrocis medinalis; test: Antifeedant activity against 4 hr starved fifth-instar larval stage of Cnaphalocrocis medinalis infested compound-treated rice leaves assessed as efficacy of conversion of digested food at 1 ppm measured every 24 hr for 4 days by gravimetric method (reference value: 46.45 +/- 4.12%); format: functional
[4] = system: Cnaphalocrocis medinalis; test: Antifeedant activity against 4 hr starved fifth-instar larval stage of Cnaphalocrocis medinalis infested compound-treated rice leaves assessed as efficacy of conversion of ingested food at 1 ppm measured every 24 hr for 4 days by gravimetric method (reference value: 20.81 +/- 1.58%); format: functional
[5] = system: Cnaphalocrocis medinalis; test: Antifeedant activity against 4 hr starved fifth-instar larval stage of Cnaphalocrocis medinalis infested compound-treated rice leaves assessed as relative growth rate at 1 ppm measured every 24 hr for 4 days by gravimetric method (reference value: 0.524 +/- 0.03 mg/mg/day); format: functional
[6] = system: Cnaphalocrocis medinalis; test: Antifeedant activity against 4 hr starved fifth-instar larval stage of Cnaphalocrocis medinalis infested compound-treated rice leaves assessed as consumption index at 1 ppm measured every 24 hr for 4 days by gravimetric method (reference value: 2.52 +/- 0.15 mg/mg/day); format: functional
[7] = system: Cnaphalocrocis medinalis; test: Antifeedant activity against 4 hr starved fifth-instar larval stage of Cnaphalocrocis medinalis infested compound-treated rice leaves assessed as reduction in diet consumption after 12 hr by leaf cut-choice assay; format: functional, organism-based
[8] = system: Cnaphalocrocis medinalis; test: Antifeedant activity against 4 hr starved fifth-instar larval stage of Cnaphalocrocis medinalis infested compound-treated rice leaves assessed as feeding deterrence index at 2 ppm after 12 hr by leaf cut-choice assay (reference value: 0.05 +/- 0.003%); format: functional

Compound | Activity [1] | Activity [2] | Activity [3] | ECI [4] | Activity [5] | Activity [6] | Activity [7] | FDI [8]
C/C=C(\C)C(=O)O[C@H]1C[C@@H](OC(C)=O)[C@@]2(C(=O)OC)CO[C@H]3[C@@H](O)[C@@](C)([C@]45O[C@@]4(C)[C@@H]4C[C@H]5O[C@@H]5OC=C[C@@]54O)[C@H]4[C@]1(CO[C@]4(O)C(=O)OC)[C@@H]32 [AZADIRACHTIN A] | 52.717% | 0.187 mg/mg/day | 12.357% | 6.507% | 0.0277 mg/mg/day | 0.427 mg/mg/day | Dose-dependent effect | 93.2%
CC(=O)O[C@@H]1C[C@H]2C(C)(C)C(=O)C=C[C@]2(C)[C@H]2CC[C@@]3(C)[C@H](c4ccoc4)OC(=O)[C@H]4O[C@]43[C@@]21C [GEDUNIN] | 46.457% | 1.007 mg/mg/day | 43.157% | 20.07% | 0.4707 mg/mg/day | 2.357 mg/mg/day | Dose-dependent effect | 18.8%
CC1(C)C(=O)C=C[C@]2(C)[C@H]3CC[C@@]4(C)[C@H](c5ccoc5)OC(=O)[C@H]5O[C@]54[C@]3(C)[C@H](O)C[C@@H]12 [DEACETYLGEDUNIN] | 48.457% | 0.927 mg/mg/day | 36.127% | 17.507% | 0.3857 mg/mg/day | 2.207 mg/mg/day | Dose-dependent effect | 23.6%
C/C=C(/C)C(=O)O[C@H]1C[C@@H](OC(C)=O)[C@@]2(C)CO[C@H]3[C@H]4O[C@@H]5C[C@@H](c6ccoc6)C(C)=C5[C@@]4(C)[C@H](CC(=O)OC)[C@]1(C)[C@@H]32 [SALANNIN] | 49.617% | 0.557 mg/mg/day | 33.527% | 16.627% | 0.2577 mg/mg/day | 1.557 mg/mg/day | Dose-dependent effect | 49.6%
CC(=O)O[C@@H]1C[C@H]2C(C)(C)C(=O)C=C[C@]2(C)[C@H]2CC[C@]3(C)C(=CC(=O)[C@@]3(O)c3ccoc3)[C@@]21C [17-HYDROXYAZADIRADIONE] | 47.217% | 0.957 mg/mg/day | 38.657% | 18.247% | 0.4197 mg/mg/day | 2.307 mg/mg/day | Dose-dependent effect | 23.6%
COC(=O)C[C@H]1[C@]2(C)C3=C(C)[C@H](c4ccoc4)C[C@H]3O[C@@H]2[C@H](O)[C@@H]2[C@]1(C)C(=O)C=C[C@@]2(C)C(=O)OC [DEACETYLNIMBIN] | 46.747% | 0.957 mg/mg/day | 39.117% | 18.287% | 0.4247 mg/mg/day | 2.327 mg/mg/day | Dose-dependent effect | 21%
